Laboratory results: patent US20260103471A1, “CYCLIC UREA THIAZOLYL COMPOUNDS FOR TREATMENT OF HSV” (Assembly Biosciences, Inc., priority 2022, published 2026)
Read-outs that look alike come from different tables or passages of the source.

Key:
HSV-2 G strain = assay: HSV-2 Antiviral Assay (Vero cells, cell viability); type: cell-based; conditions: for EC50: Vero cells, 5 days
How it was run: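 Vero cells (1.0×10^4/well, attached overnight) given 8-point 3-fold compound dilutions (0.5% DMSO) then infected with 160 TCID50 HSV-2 G strain in 2% FBS medium for 5 days at 37 °C. Protection read as cell viability by WST-8 absorbance at 460 and 620 nm after 3 h.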

HSV-1 = HSV-1 Antiviral Assay (Vero cells, cell viability); type: cell-based; conditions: for EC50: Vero cells, read-out: HSV-1 EC50
Experimental: Vero cells were cultured in Dulbecco's Modified Eagle Medium (DMVEM) supplemented with […] and 100 units/mL penicillin and streptomycin. The cells were passaged 2-3 times per week to maintain sub-confluent densities.
Vero cells were seeded into 96-well plates at a density of 2.5×10^3 cells per well and allowed to attach overnight. Following attachment, the media was replaced with 50 μL of infection medium (DMVEM supplemented with 2% fetal bovine serum and 100 units/mL penicillin and streptomycin). A Tecan D300e digital dispenser was then used to add compounds to the culture using an 8-point 3-fold serial dilution format. The DMSO concentration was normalized to 0.5% for all treatments. Following compound addition, 50 μL of infection medium containing 80 TCID50 HSV-1 was added to the cells and incubated at 37° C. for 4 days. After the incubation, the plates were equilibrated to room temperature, the media was removed, and […] a 1:1 dilution of Cell titer glow and phosphate buffered saline was added to the cells. Following a 5-minute incubation, cell viability was quantified by measuring luminance using a Tecan Infinite M1000 Pro plate reader.

[1] = Human alphaherpesvirus 2, Vero, 120 h, 160 TCID50 HSV-2 G strain, cell viability
[2] = Human alphaherpesvirus 1, 96 h, 80 TCID50 HSV-1, 4 days, cell viability
[3] = ratio of EC50 vs Example 87 in WO2001047904

Structure (SMILES)	EC50 (HSV-2 G strain; [1])	EC50 (HSV-1; [2])	other results
Cc1nc(N2CCCN(c3ccc(-c4ccncc4)cc3)C2=O)sc1S(N)(=O)=O [Compound 3]	100 to 1000 nM	100 to 1000 nM	–
Cc1nc(N2CCCN(c3cccc(-c4cc(F)ccc4F)c3)C2=O)sc1S(N)(=O)=O [Compound 16]	100 to 1000 nM	100 to 1000 nM	–
Cc1nc(N2CCCN(c3ccc(-c4cc(F)ccc4F)cc3)C2=O)sc1[S@@](C)(=N)=O (single isomer, unassigned) [Compound 140]	100 to 1000 nM	100 to 1000 nM	–
Cc1nc(N2CCCN(c3ccc(-c4nc5ncccc5s4)cc3)C2=O)sc1S(N)(=O)=O [Compound 89]	1000 to 5000 nM	1000 to 5000 nM	–
Cc1nc(N2CCCN(c3ccc(-c4ccc5c(cnn5C)c4)cc3)C2=O)sc1S(N)(=O)=O [Compound 52]	1000 to 5000 nM	1000 to 5000 nM	–
Cc1nc(N2C[C@H](C#N)CN(c3ccc(-c4cc(F)ccc4F)cc3)C2=O)sc1S(N)(=O)=O (single isomer, unassigned) [Compound 376]	–	–	EC50 (HSV-2 G strain; 160 TCID50 HSV-2 G strain, cell viability): < 100 nM; EC50 (HSV-1; 80 TCID50 HSV-1, 4 days, cell viability): < 100 nM
Cc1nc(N2CCCN(c3cccc(-c4ccccn4)c3)C2=O)sc1S(N)(=O)=O [Compound 4]	100 to 1000 nM	100 to 1000 nM	–
Cc1nc(N2CCCN(c3ccc(-c4cc(F)ccc4F)cc3)C2=O)sc1S(=O)(=O)C1CC1 [Compound 163]	100 to 1000 nM	100 to 1000 nM	–
Cc1nc(N(C)C(=O)N(C)c2ccc(-c3cc(F)ccc3F)cc2)sc1S(N)(=O)=O [Reference Compound A, reference compound]	–	–	EC50 (HSV-2 G strain; Human alphaherpesvirus 2, Vero, 120 h): 925 nM; fold less active than Example 5 in the HSV-2 assay (HSV-2 G strain; ratio of EC50 vs Example 5): 92 fold; fold less active than acyclic amide analog Example 87 in the HSV-2 assay (HSV-2 G strain; [3]): 54 fold; EC50 (HSV-1; Human alphaherpesvirus 1, 96 h, 4 days): 844 nM; fold less active than Example 5 in the HSV-1 assay (HSV-1; ratio of EC50 vs Example 5): 44 fold; fold less active than acyclic amide analog Example 87 in the HSV-1 assay (HSV-1; [3]): 50 fold
Cc1nc(N2CC3(CC3)CN(c3ccc(-c4cc(F)ccc4F)cc3)C2=O)sc1[S@@](C)(=N)=O (single isomer, unassigned) [Compound 157]	< 100 nM	100 to 1000 nM	–
Cc1nc(N2CCCN(c3ccc(-c4ncccc4F)cc3)C2=O)sc1S(N)(=O)=O [Compound 35]	< 100 nM	< 100 nM	–
Cc1nc(N2CC3(CC3)CN(c3ccc(-c4ccnn4C)cc3)C2=O)sc1S(N)(=O)=O [Compound 113, 4-Methyl-2-(7-(4-(1-methyl-1H-pyrazol-5-yl)phenyl)-6-oxo-5,7-diazaspiro[2.5]octan-5-yl)thiazole-5-sulfonamide]	1000 to 5000 nM	1000 to 5000 nM	–
Cc1nc(N2CCCN(c3ccc(-c4nccs4)cc3)C2=O)sc1S(N)(=O)=O [Compound 42, 4-Methyl-2-(2-oxo-3-(4-(thiazol-2-yl)phenyl)tetrahydropyrimidin-1(2H)-yl) thiazole-5-sulfonamide]	< 100 nM	< 100 nM	–
CNS(=O)(=O)c1sc(N2CCCN(Cc3cccc(-c4cc(F)ccc4F)c3)C2=O)nc1C [Compound 181]	100 to 1000 nM	< 100 nM	–
Cc1nc(N2CCCN(c3ccc(-c4ccc5ncn(C)c5c4)cc3)C2=O)sc1S(N)(=O)=O [Compound 75]	1000 to 5000 nM	1000 to 5000 nM	–
Cc1nc(N2CCCN(c3ccc(-c4cccc5c4cnn5C)cc3)C2=O)sc1S(N)(=O)=O [Compound 55]	< 100 nM	< 100 nM	–
Cc1nc2cccc(-c3ccc(N4CCCN(c5nc(C)c(S(N)(=O)=O)s5)C4=O)cc3)c2s1 [Compound 68]	< 100 nM	< 100 nM	–
COc1c(F)cc(F)cc1-c1ccc(N2CCCN(c3nc(C)c(S(N)(=O)=O)s3)C2=O)cc1 [Compound 216]	< 100 nM	< 100 nM	–

Further lines, with some results ahead:

EC50 (HSV-2 G strain; [1])	EC50 (HSV-1; [2])	Structure (SMILES)	other results
< 100 nM	< 100 nM	Cc1nc(N2CCCN(c3ccc(-c4ccccn4)cc3)C2=O)sc1S(N)(=O)=O [Compound 1, 4-Methyl-2-(2-oxo-3-(4-(pyridin-2-yl)phenyl)tetrahydropyrimidin-1(2H)-yl) thiazole-5-sulfonamide]	–
< 100 nM	< 100 nM	Cc1nc(N2CCCN(c3ccc(-c4cc(F)ccc4C4CC4)cc3)C2=O)sc1S(N)(=O)=O [Compound 22]	–
< 100 nM	< 100 nM	Cc1nc(N2CCCN(c3cc(F)c(-c4ccccn4)cc3F)C2=O)sc1S(N)(=O)=O [Compound 98]	–
< 100 nM	< 100 nM	Cc1nc(N2CCCN(c3ccc(-c4cccc(F)c4F)cc3)C2=O)sc1S(N)(=O)=O [Compound 6]	–
< 100 nM	< 100 nM	C#Cc1ccc(F)cc1-c1ccc(N2CCCN(c3nc(C)c(S(N)(=O)=O)s3)C2=O)cc1 [Compound 18]	–
< 100 nM	< 100 nM	Cc1nc(N2CCCN(c3ccc(-c4cc(F)ccn4)cc3)C2=O)sc1S(N)(=O)=O [Compound 36]	–
< 100 nM	< 100 nM	CNS(=O)(=O)c1sc(N2CCCN(c3ccc(-c4ccccn4)c(F)c3)C2=O)nc1C [Compound 128]	–
< 100 nM	< 100 nM	Cc1nc(N2C[C@@H](C)CN(c3ccc(-c4ccccc4Cl)cc3)C2=O)sc1S(N)(=O)=O (single isomer, unassigned) [Compound 323]	–
< 100 nM	< 100 nM	Cc1nc(N2CCCCN(c3ccc(-c4cc(F)ccc4F)cc3)C2=O)sc1S(N)(=O)=O [Compound 101, 2-(3-(2′,5′-Difluoro-[1,1′-biphenyl]-4-yl)-2-oxo-1,3-diazepan-1-yl)-4-methylthiazole-5-sulfonamide]	–
< 100 nM	< 100 nM	Cc1csc(-c2ccc(N3CCCN(c4nc(C)c(S(N)(=O)=O)s4)C3=O)cc2)n1 [Compound 43]	–
< 100 nM	< 100 nM	Cc1nc(N2CCCN(c3ccc(-c4snc5ccccc45)cc3)C2=O)sc1S(N)(=O)=O [Compound 305]	–
< 100 nM	< 100 nM	Cc1nc(N2CCCN(c3ccc(-c4cccc5cc(C#N)sc45)cc3)C2=O)sc1S(N)(=O)=O [Compound 274]	–
< 100 nM	< 100 nM	Cc1nc(N2CC3(CC3)CN(c3ccc(-c4cc(F)ccc4F)cc3)C2=O)sc1S(N)(=O)=O [Compound 110, 2-(7-(2′,5′-Difluoro-[1,1′-biphenyl]-4-yl)-6-oxo-5,7-diazaspiro [2.5]octan-5-yl)-4-methylthiazole-5-sulfonamide]	–
< 100 nM	< 100 nM	Cc1nc(N2CCCN(c3ccc(-c4cc(F)ccc4F)cc3)C2=O)sc1S(N)(=O)=O [Compound 5]	–
< 100 nM	< 100 nM	COCc1ccc(F)cc1-c1ccc(N2CCCN(c3nc(C)c(S(N)(=O)=O)s3)C2=O)cc1 [Compound 209]	–
< 100 nM	< 100 nM	Cc1nc(N2CCCN(c3ccc(-c4cccc5c4OC(F)(F)O5)cc3)C2=O)sc1S(N)(=O)=O [Compound 80]	–
< 100 nM	< 100 nM	Cc1nc(N2CCCN(c3ccc(-c4cc(F)ccc4Cl)cc3)C2=O)sc1S(N)(=O)=O [Compound 193]	–
< 100 nM	< 100 nM	Cc1nc(N2CCCN(c3ccc(-c4cccc5c4sc(=O)n5C)cc3)C2=O)sc1S(N)(=O)=O [Compound 79]	–
< 100 nM	< 100 nM	C#Cc1ccc(F)c(-c2ccc(N3CCCN(c4nc(C)c(S(N)(=O)=O)s4)C3=O)cc2)c1 [Compound 17, 2-(3-(5′-Ethynyl-2′-fluoro-[1,1′-biphenyl]-4-yl)-2-oxotetrahydropyrimidin-1(2H)-yl)-4-methylthiazole-5-sulfonamide]	–
< 100 nM	< 100 nM	Cc1nc(N2CCCN(c3ccc(-c4nsc5ccccc45)cc3)C2=O)sc1S(N)(=O)=O [Compound 310]	–
